In PubChem BioAssay AID296 (DTP/NCI, 2004):
Where “and” joins values, the source holds several entries; their conditions need not be identical. Equal values may be shown once. Results filed as inconclusive are left out.

System: MX-1 breast xenograft, nude mice, tumor weight T/C
Assay: NCI In Vivo Anticancer Drug Screen. Data for tumor model Human Mammary Carcinoma MX-1 Xenograft (intrarenal inoculation) in NU/NU Swiss (nude) mice
Settings: endpoint: mean tumor weight change, higher = larger tumour
In short: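 Tumor-bearing mice were treated with test compound alongside a vehicle-treated control group. Survival or tumor size was measured, and activity is expressed as the treated-group value divided by the control-group value.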

[1] = dose: 300.0 mg/kg/injection, schedule: Q04DX003 (sc), vehicle: saline with Tween-80
[2] = dose: 600.0 mg/kg/injection, schedule: Q04DX003 (sc), vehicle: saline with Tween-80
[3] = dose: 1200.0 mg/kg/injection, schedule: Q04DX003 (sc), vehicle: saline with Tween-80
[4] = dose: 2400.0 mg/kg/injection, schedule: Q04DX003 (sc), vehicle: saline with Tween-80
[5] = dose: 200.0 mg/kg/injection, schedule: Q04DX003 (sc), vehicle: saline with Tween-80
[6] = dose: 400.0 mg/kg/injection, schedule: Q04DX003 (sc), vehicle: saline with Tween-80
[7] = dose: 800.0 mg/kg/injection, schedule: Q04DX003 (sc), vehicle: saline with Tween-80
[8] = dose: 300.0 mg/kg/injection, schedule: Q04DX003 (sc), vehicle: Klucel (hydroxypropylcellulose) (HPC)
[9] = dose: 600.0 mg/kg/injection, schedule: Q04DX003 (sc), vehicle: Klucel (hydroxypropylcellulose) (HPC)
[10] = dose: 2400.0 mg/kg/injection, schedule: Q04DX003 (sc), vehicle: Klucel (hydroxypropylcellulose) (HPC)
[11] = dose: 12.5 mg/kg/injection, schedule: Q01DX010 (sc), vehicle: saline with Tween-80
[12] = dose: 25.0 mg/kg/injection, schedule: Q01DX010 (sc), vehicle: saline with Tween-80

For `OCC1(CO)COC2(CCCCC2)N1`, the T/C (dose: 50.0 mg/kg/injection, schedule: Q01DX010 (sc), vehicle: saline) was 107 % of control, the T/C (dose: 200.0 mg/kg/injection, schedule: Q01DX010 (sc), vehicle: saline) was 75 % of control and the T/C (dose: 200.0 mg/kg/injection, schedule: Q01DX010 (sc), vehicle: suspension in saline) was 83 % of control. For the same compound, the T/C (dose: 400.0 mg/kg/injection, schedule: Q01DX010 (sc), vehicle: suspension in saline) was 56 % of control, the T/C (dose: 800.0 mg/kg/injection, schedule: Q01DX010 (sc), vehicle: suspension in saline) was 63 % of control and the T/C (dose: 1600.0 mg/kg/injection, schedule: Q01DX010 (sc), vehicle: suspension in saline) was 105 % of control.

In the case of `S=c1[nH]cc2cnccn12`, the T/C [1] is reported as 104 % of control, the T/C [2] is reported as 97 % of control and the T/C [3] is reported as 106 % of control.

For `O=C1C(NCC(O)CO)=C(N2CC2)C(=O)C(NCC(O)CO)=C1N1CC1` (stereo unspecified), the T/C (dose: 4.0 mg/kg/injection, schedule: Q04DX003 (ip), vehicle: saline) was 76 % of control, the T/C (dose: 8.0 mg/kg/injection, schedule: Q04DX003 (ip), vehicle: saline) was 69 % of control and the T/C (dose: 16.0 mg/kg/injection, schedule: Q04DX003 (ip), vehicle: saline) was 46 % of control.

In the case of `COC1C(O)CC(OC2CC(OC3CC(O[C@@H]4C(=O)c5c(cc6cc(OC7CC(OC8CC(O)C(O)C(C)O8)C(O)C(C)O7)c(C)c(O)c6c5O)C[C@H]4[C@H](OC)C(=O)[C@@H](O)[C@@H](C)O)OC(C)C3O)OC(C)C2O)OC1C` (stereo partly specified), the T/C (dose: 0.18 mg/kg/injection, schedule: Q01DX010 (sc), vehicle: saline) is reported as 99 % of control, the T/C (dose: 0.37 mg/kg/injection, schedule: Q04DX003 (sc), vehicle: saline) is reported as 123 % of control and the T/C (dose: 0.75 mg/kg/injection, schedule: Q04DX003 (sc), vehicle: saline) is reported as 90 % of control. For the same compound, the T/C (dose: 1.5 mg/kg/injection, schedule: Q04DX003 (sc), vehicle: saline) was 61 % of control, the T/C (dose: 3.0 mg/kg/injection, schedule: Q01DX010 (sc), vehicle: saline) was -93 % of control and the T/C (dose: 3.0 mg/kg/injection, schedule: Q04DX003 (sc), vehicle: saline) was 35 % of control.

For `Ic1ncnc2c1ncn2C1CCCO1` (stereo unspecified), the T/C (dose: 50.0 mg/kg/injection, schedule: Q04DX003 (sc), vehicle: Klucel (hydroxypropylcellulose) (HPC)) was 84 % of control, the T/C (dose: 200.0 mg/kg/injection, schedule: Q04DX003 (sc), vehicle: Klucel (hydroxypropylcellulose) (HPC)) was 97 % of control and the T/C (dose: 400.0 mg/kg/injection, schedule: Q04DX003 (sc), vehicle: Klucel (hydroxypropylcellulose) (HPC)) was 123 % of control.

With `O=c1n(CC2CO2)c(=O)n(CC2CO2)c(=O)n1CC1CO1` (stereo unspecified) the T/C (dose: 25.0 mg/kg/injection, schedule: Q04DX003 (sc), vehicle: saline) was 26 % of control and the T/C (dose: 50.0 mg/kg/injection, schedule: Q04DX003 (sc), vehicle: saline) was 4 % of control.

In the case of `CC(=O)NC(Cc1ccc(F)cc1)C(=O)O` (stereo unspecified), the T/C [1] is reported as 100 % of control, the T/C [2] is reported as 101 % of control and the T/C [3] is reported as 120 % of control. The T/C [4] was 111 % of control.

`CC(=O)OCc1cc(=O)n(C)c2c3c4c(cc12)c(C)cc(=O)n4CO3` was tested, and the T/C (dose: 50.0 mg/kg/injection, schedule: Q01DX010 (sc), vehicle: Klucel (hydroxypropylcellulose) (HPC)) was 120 % of control and the T/C (dose: 100.0 mg/kg/injection, schedule: Q01DX010 (sc), vehicle: Klucel (hydroxypropylcellulose) (HPC)) was 92 % of control.

With `Nc1n[n+](-c2ccc(Cl)cc2)no1` the T/C (dose: 25.0 mg/kg/injection, schedule: Q04DX003 (sc), vehicle: water) was 93 % of control and the T/C (dose: 50.0 mg/kg/injection, schedule: Q04DX003 (sc), vehicle: water) was 102 % of control.

With `Cc1cc(NCCCCCCCCNc2cc(C)nc3cc(N(C)C)ccc23)c2ccc(N(C)C)cc2n1` the T/C (dose: 150.0 mg/kg/injection, schedule: Q04DX003 (sc), vehicle: distilled water + Tween-80 + alcohol) was 67 % of control, the T/C (dose: 300.0 mg/kg/injection, schedule: Q04DX003 (sc), vehicle: distilled water + Tween-80 + alcohol) was 74 % of control and the T/C (dose: 600.0 mg/kg/injection, schedule: Q04DX003 (sc), vehicle: distilled water + Tween-80 + alcohol) was 43 % of control. For the same compound, the T/C (dose: 1200.0 mg/kg/injection, schedule: Q04DX003 (sc), vehicle: distilled water + Tween-80 + alcohol) was 71 % of control.

`COc1cc(C2c3cc4c(cc3C(O)C(CO)C2CO)OCO4)cc(OC)c1OC` (stereo unspecified) was tested, and the T/C (dose: 100.0 mg/kg/injection, schedule: Q04DX003 (sc), vehicle: saline with Tween-80) was 109 % of control, the T/C [5] was 97 % of control and the T/C [6] was 106 % of control. The T/C [7] was 86 % of control.

For `Cc1ccc(C2NC(=S)N3C(c4ccc(C)cc4)NC(=S)N23)cc1` (stereo unspecified), the T/C [8] was 91 % of control, the T/C [9] was 112 % of control and the T/C [10] was 89 % of control.

For `CC(=O)OCC1OC(n2cc(CBr)nn2)C(OC(C)=O)C(OC(C)=O)C1OC(C)=O` (stereo unspecified), the T/C [11] was 106 % of control, the T/C [12] was 117 % of control and the T/C (dose: 50.0 mg/kg/injection, schedule: Q01DX010 (sc), vehicle: saline with Tween-80) was 117 % of control.

In the case of `OC(C1CO1)C(O)C1CO1` (stereo unspecified), the T/C (dose: 1.0 mg/kg/injection, schedule: Q01DX010 (sc), vehicle: saline) is reported as 5 % of control and 18 % of control.

With `CS(=O)(=O)OCCCCOS(C)(=O)=O` the T/C (dose: 6.25 mg/kg/injection, schedule: Q01DX010 (sc), vehicle: saline with Tween-80) was 114 % of control, the T/C [11] was 68 % of control and the T/C [12] was 49 % of control.

`C[C@]12CC[C@@H]3c4ccc(OC(=O)Cc5ccc(N(CCCl)CCCl)cc5)cc4CC[C@H]3[C@@H]1CC[C@@H]2OC(=O)Cc1ccc(N(CCCl)CCCl)cc1` was tested, and the T/C [5] was 58 % of control, the T/C [6] was 50 % of control and the T/C [7] was 33 % of control. The T/C [3] was 36 % of control, the T/C (dose: 1600.0 mg/kg/injection, schedule: Q04DX003 (sc), vehicle: saline with Tween-80) was 7 % of control and 26 % of control and the T/C (dose: 2000.0 mg/kg/injection, schedule: Q04DX003 (sc), vehicle: saline with Tween-80) was 21 % of control. For the same compound, the T/C [4] was 35 % of control.

For `c1ccc([P+](c2ccccc2)(c2ccccc2)c2ccccc2)cc1`, the T/C (dose: 5.0 mg/kg/injection, schedule: Q04DX003 (sc), vehicle: saline) was 80 % of control, the T/C (dose: 10.0 mg/kg/injection, schedule: Q04DX003 (sc), vehicle: saline) was 69 % of control and the T/C (dose: 20.0 mg/kg/injection, schedule: Q04DX003 (sc), vehicle: saline) was 61 % of control.

`COc1cccc(C2NC(=O)c3c(n[nH]c3N)S2)c1O` (stereo unspecified) was tested, and the T/C (dose: 150.0 mg/kg/injection, schedule: Q04DX003 (sc), vehicle: saline with Tween-80) was 50 % of control, the T/C [1] was 62 % of control and the T/C [2] was 77 % of control. The T/C [3] was 117 % of control.

For `CC(C)(C)C1CCCCC1`, the T/C [8] was 101 % of control, the T/C [9] was 89 % of control and the T/C (dose: 1200.0 mg/kg/injection, schedule: Q04DX003 (sc), vehicle: Klucel (hydroxypropylcellulose) (HPC)) was 75 % of control. The T/C [10] was 65 % of control.

With `N#CC(OC1OC(COC2OC(CO)C(O)C(O)C2O)C(O)C(O)C1O)c1ccccc1` (stereo unspecified) the T/C (dose: 300.0 mg/kg/injection, schedule: Q04DX003 (sc), vehicle: saline) was 67 % of control, the T/C (dose: 600.0 mg/kg/injection, schedule: Q04DX003 (sc), vehicle: saline) was 83 % of control and the T/C (dose: 1200.0 mg/kg/injection, schedule: Q04DX003 (sc), vehicle: saline) was 71 % of control. For the same compound, the T/C (dose: 2400.0 mg/kg/injection, schedule: Q04DX003 (sc), vehicle: saline) was 75 % of control.

With `N/C(=N\OC(=O)Nc1ccc(CSc2ccc(Cl)cc2)o1)c1ccccn1` the T/C (dose: 9.38 mg/kg/injection, schedule: Q04DX003 (sc), vehicle: saline) was 62 % of control, the T/C (dose: 18.75 mg/kg/injection, schedule: Q04DX003 (sc), vehicle: saline) was 66 % of control and the T/C (dose: 37.5 mg/kg/injection, schedule: Q04DX003 (sc), vehicle: saline) was 40 % of control. For the same compound, the T/C (dose: 150.0 mg/kg/injection, schedule: Q04DX003 (sc), vehicle: Klucel (hydroxypropylcellulose) (HPC)) was 102 % of control and the T/C [8] was 97 % of control.

With `CC1(C)OC1CS(=O)c1ccccc1` (stereo unspecified) the T/C [2] was 121 % of control.

In the case of `CNC(=O)OCc1c(COC(=O)NC)c(-c2ccccc2)n(C)c1-c1ccccc1`, the T/C (dose: 100.0 mg/kg/injection, schedule: Q04DX003 (sc), vehicle: distilled water + Tween-80) is reported as 121 % of control, the T/C (dose: 200.0 mg/kg/injection, schedule: Q04DX003 (sc), vehicle: distilled water + Tween-80) is reported as 51 % of control and the T/C (dose: 400.0 mg/kg/injection, schedule: Q04DX003 (sc), vehicle: distilled water + Tween-80) is reported as 78 % of control. The T/C (dose: 800.0 mg/kg/injection, schedule: Q04DX003 (sc), vehicle: distilled water + Tween-80) was 74 % of control.
